Assay results as given in ChEMBL document CHEMBL1201862, “PubChem BioAssay data set” (2004).
Where “and” joins values, the source holds several entries; their conditions need not be identical. Equal values may be shown once.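 Cultured in 96-well plates, cells were exposed to test compound for 48 hours across five concentrations. Abbreviation: GI50, concentration required for 50% inhibition of growth.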 Calls of active or inactive are those of the source. No stated cut-off is given here; in the data, active = GI50 up to about 1.1 µM and inactive = higher.

Legend:
Experiment in all cases: DTP human tumour cell line panel, 48 h
OVCAR-3 = tested on: OVCAR-3
NCI-H522 = tested on: NCI-H522
LXFL 529 = tested on: LXFL 529
OVCAR-8 = tested on: OVCAR-8
M19-MEL = tested on: M19-MEL
SF-295 = tested on: SF-295
CAKI-1 = tested on: CAKI-1
SK-MEL-28 = tested on: SK-MEL-28
UACC-62 = tested on: UACC-62
KM12 = tested on: KM12
SK-MEL-5 = tested on: SK-MEL-5
SK-OV-3 = tested on: SK-OV-3
XF498 = tested on: XF498
LOX IMVI = tested on: LOX IMVI
EKVX = tested on: EKVX
RXF 631 = tested on: RXF 631
SW-620 = tested on: SW-620
HL-60 = tested on: HL-60
DLD-1 = tested on: DLD-1
ACHN = tested on: ACHN
IGROV-1 = tested on: IGROV-1
RPMI-8226 = tested on: RPMI-8226
NCI-H23 = tested on: NCI-H23
HOP-62 = tested on: HOP-62
K562 = tested on: K562
SN12C = tested on: SN12C
TK-10 = tested on: TK-10
U-251 = tested on: U-251
Malme-3M = tested on: Malme-3M
CCRF-CEM = tested on: CCRF-CEM
MOLT-4 = tested on: MOLT-4
786-0 = tested on: 786-0
HCT-15 = tested on: HCT-15
SR = tested on: SR
HT-29 = tested on: HT-29
SK-MEL-2 = tested on: SK-MEL-2
DMS-114 = tested on: DMS-114
COLO 205 = tested on: COLO 205
DMS-273 = tested on: DMS-273
HCC 2998 = tested on: HCC 2998
HCT-116 = tested on: HCT-116
NCI-H460 = tested on: NCI-H460
A549 = tested on: A549
SF-268 = tested on: SF-268

Structure (SMILES): COC(=O)CC(C(C(C)=O)C(=O)OCc1ccccc1)N1C(=O)OC(c2ccccc2)C1c1ccccc1 (centres undefined)
- GI50 (OVCAR-3): 29.6 µM (inactive) and 17.4 µM (inactive)
- GI50 (NCI-H522): 38.3 µM (inactive) and 22.9 µM (inactive)
- GI50 (LXFL 529): 49.1 µM (inactive) and 50.4 µM (inactive)
- GI50 (OVCAR-8): 70.3 µM (inactive) and 71.1 µM (inactive)
- GI50 (M19-MEL): 85.1 µM (inactive) and 73.8 µM (inactive)
- GI50 (SF-295): 19.5 µM (inactive) and 30.8 µM (inactive)
- GI50 (CAKI-1): 81.1 µM (inactive) and 83.4 µM (inactive)
- GI50 (SK-MEL-28): 65.9 µM (inactive) and 97.7 µM (inactive)
- GI50 (UACC-62): 41.1 µM (inactive) and 45.4 µM (inactive)
- GI50 (KM12): 42 µM (inactive) and 35.6 µM (inactive)
- GI50 (SK-MEL-5): 60.1 µM (inactive)
- GI50 (SK-OV-3): > 100 µM (inactive)
- GI50 (XF498): 67.1 µM (inactive)
- GI50 (LOX IMVI): 78.5 µM (inactive)
- GI50 (EKVX): 64.4 µM (inactive)
- GI50 (RXF 631): 89.7 µM (inactive)
- GI50 (SW-620): > 100 µM (inactive)
- GI50 (HL-60): 37.7 µM (inactive) and 32.2 µM (inactive)
- GI50 (DLD-1): 64.7 µM (inactive)
- GI50 (ACHN): > 100 µM (inactive)
- GI50 (IGROV-1): > 100 µM (inactive)
- GI50 (RPMI-8226): 28.8 µM (inactive) and 33.5 µM (inactive)
- GI50 (NCI-H23): 46.9 µM (inactive) and 55.3 µM (inactive)
- GI50 (HOP-62): 54.1 µM (inactive)
- GI50 (K562): 68.5 µM (inactive) and 71.3 µM (inactive)
- GI50 (SN12C): > 100 µM (inactive)
- GI50 (TK-10): > 100 µM (inactive)
- GI50 (U-251): 96.6 µM (inactive) and 75.5 µM (inactive)
- GI50 (Malme-3M): > 100 µM (inactive)
- GI50 (CCRF-CEM): 72.4 µM (inactive) and 73.8 µM (inactive)
- GI50 (MOLT-4): 36.4 µM (inactive) and 42.3 µM (inactive)
- GI50 (786-0): > 100 µM (inactive)
- GI50 (HCT-15): 52.2 µM and 62.5 µM
- GI50 (SR): 42.7 µM (inactive) and 42.5 µM (inactive)
- GI50 (HT-29): > 100 µM (inactive)
- GI50 (SK-MEL-2): 61.5 µM (inactive) and 83.4 µM (inactive)
- GI50 (DMS-114): 30.5 µM (inactive) and 39.4 µM (inactive)
- GI50 (COLO 205): 72.4 µM (inactive) and 77.4 µM (inactive)
- GI50 (DMS-273): > 100 µM (inactive) and 78.5 µM (inactive)
- GI50 (HCC 2998): > 100 µM (inactive) and 89.3 µM (inactive)
- GI50 (HCT-116): 39.3 µM (inactive) and 24.2 µM (inactive)
- GI50 (NCI-H460): > 100 µM (inactive)
- GI50 (A549): 68.5 µM (inactive) and 76.2 µM (inactive)
- GI50 (SF-268): 40.7 µM (inactive) and 54.5 µM (inactive)
